Test results taken from paper PMC6164480, “A New Synthetic Histone Deacetylase Inhibitor, MHY2256, Induces Apoptosis and Autophagy Cell Death in Endometrial Cancer Cells via p53 Acetylation” (International Journal of Molecular Sciences, 2018).
pIC50: −log10 of the molar value.

Target: T1, SIRT1 (Homo sapiens, UniProt Q96EB6)
T1 sequence (Q96EB6 2-747): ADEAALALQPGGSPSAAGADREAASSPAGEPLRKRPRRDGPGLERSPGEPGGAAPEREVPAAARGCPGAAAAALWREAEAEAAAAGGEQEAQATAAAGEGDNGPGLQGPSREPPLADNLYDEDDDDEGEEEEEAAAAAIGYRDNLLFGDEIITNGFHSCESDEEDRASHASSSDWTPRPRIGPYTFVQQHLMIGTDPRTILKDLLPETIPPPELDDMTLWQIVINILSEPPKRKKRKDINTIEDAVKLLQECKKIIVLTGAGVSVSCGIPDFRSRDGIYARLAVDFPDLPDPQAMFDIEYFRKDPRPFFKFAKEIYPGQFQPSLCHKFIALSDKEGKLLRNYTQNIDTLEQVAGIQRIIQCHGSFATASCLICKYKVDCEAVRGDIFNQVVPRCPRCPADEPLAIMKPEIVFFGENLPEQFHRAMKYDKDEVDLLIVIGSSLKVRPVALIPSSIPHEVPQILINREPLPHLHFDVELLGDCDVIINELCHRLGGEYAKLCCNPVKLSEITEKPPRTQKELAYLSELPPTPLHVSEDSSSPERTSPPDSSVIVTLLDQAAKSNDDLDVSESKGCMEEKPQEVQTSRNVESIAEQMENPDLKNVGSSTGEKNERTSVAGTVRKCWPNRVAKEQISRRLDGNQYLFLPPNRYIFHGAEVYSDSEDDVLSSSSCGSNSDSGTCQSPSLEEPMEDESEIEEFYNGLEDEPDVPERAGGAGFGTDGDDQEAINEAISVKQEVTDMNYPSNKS
Experiment: SensoLyte […] FRET fluorimetric SIRT1 enzyme activity assay kit
Type: biochemical

SMILES: CC(C)(C)c1cc(C=C2C(=O)NC(=S)NC2=O)cc(C(C)(C)C)c1O [MHY2256, 5-(3,5-di-tert-butyl-4-hydroxybenzylidene)-2-thioxodihydropyrimidine-4,6(1H,5H)-dione]
- pIC50: 5.72

SMILES: CC(C(=O)Nc1cccc(/N=C/c2c(O)ccc3ccccc23)c1)c1ccccc1 (centres unmarked) [salermide]
- pIC50: 5.32
